What was measured:
[1] = tested on: apomorphine-induced emesis; assay: apomorphine test in dogs (APO-dog): protection from emesis; type: in vivo, beagle dogs; conditions: Canis lupus familiaris, sc, apomorphine 0.31 mg/kg s.c. 1 hour after compound, dose protecting 50% from emesis
Description: 2. The apomorphine test in dogs (APO-dog). The method used is described by P. A. J. Janssen and C. J. E. Niemegeers in Arzneim.-Forsch.

[2] = tested on: lesions induced by compound 48/80; assay: gastric lesion test: lesions induced by compound 48/80; type: in vivo, rats; conditions: Rattus norvegicus
[3] = tested on: tryptamine-induced bilateral tonic seizures; assay: combined test in rats: tryptamine (TRY)-induced bilateral tonic seizures; type: in vivo, adult male Wistar rats; conditions: sc, 1.5 h; s.c.; rat; tryptamine 40 mg/kg i.v. at 90 minutes; dose protecting 50% of animals; read-out: ED0 (TRY)-rat
[4] = tested on: apomorphine-induced phenomena: agitation and stereotypic chewing; assay: combined test in rats: apomorphine (APO)-induced agitation and stereotypic chewing; type: in vivo, adult male Wistar rats; conditions: sc, 0.5 h; s.c.; rat; apomorphine hydrochloride 1.25 mg/kg i.v. 30 minutes after compound; dose protecting 50% of animals
[5] = tested on: lesions induced by compound 48/80; conditions: rats, known serotonin antagonists; cited from earlier work

SMILES | ED50 [1] [mg/kg] | ED50 [2] [mg/kg] | ED50 [3] [mg/kg] | ED50 [4] [mg/kg] | prevention of cyanosis of ears and extremities [5] | prevention of lesions in the glandular area of the stomach and abnormal gastric distension [5]
O=c1[nH]c2ccccc2n1CCCN1CCC(CC(O)c2ccc(F)cc2)CC1 (stereo not shown) | 0.5 | 0.08 | – | – | – | –
Cc1ccc2c(c1)[nH]c(=O)n2CCN1CCC(CC(=O)c2ccc(F)cc2)CC1 [5-CH3, H, H, (CH2)2, CO, 4-FC6 H4, base] | 0.08 | 0.63 | 0.63 | – | – | –
O=C(CC1CCN(CCn2c(=O)[nH]c3cc(Cl)ccc32)CC1)c1ccc(F)cc1 [5-Cl, H, H, (CH2)2, CO, 4-FC6 H4, base] | 0.12 | 0.63 | 5 | 2.5 | – | –
O=C(CC1CCN(CCn2c(=O)[nH]c3cc(F)ccc32)CC1)c1ccc(F)cc1 [5-F, H, H, (CH2)2, CO, 4-FC6 H4, base] | – | 0.31 | 0.63 | 0.16 | – | –
O=C(CC1CCN(CCn2c(=O)[nH]c3ccc(Cl)cc32)CC1)c1ccc(F)cc1 [6-Cl, H, H, (CH2)2, CO, 4-FC6 H4, base] | 0.5 | 0.63 | 1.25 | 2.5 | – | –
CC(=O)n1c(=O)n(CCN2CCC(CC(=O)c3ccc(F)cc3)CC2)c2ccccc21 [H, H, CH3 CO, (CH2)2, CO, 4-FC6 H4, base, 1-acetyl-3-[2-[4-[2-(4-fluorophenyl)-2-oxoethyl]-1-piperidinyl]ethyl]-1,3-dihydro-2H-benzimidazol-2-one] | 1 | 0.08 | 1.25 | 1.25 | – | –
Cn1c(=O)n(CCN2CCC(CC(=O)c3ccc(F)cc3)CC2)c2ccccc21 [H, H, CH3, (CH2)2, CO, 4-FC6 H4, base] | 0.63 | 0.31 | 0.63 | 0.63 | – | –
Cn1c(=O)n(CCCN2CCC(CC(=O)c3ccc(F)cc3)CC2)c2ccccc21 [H, H, CH3, (CH2)3, CO, 4-FC6 H4, base] | – | 0.31 | 1.25 | – | – | –
Cc1ccc(C(=O)CC2CCN(CCn3c(=O)[nH]c4ccccc43)CC2)cc1 [H, H, H, (CH2)2, CO, 4-CH3C6 H4, base] | 0.5 | 0.63 | 2.5 | – | – | –
O=C(CC1CCN(CCn2c(=O)[nH]c3ccccc32)CC1)c1ccc(Cl)cc1 [H, H, H, (CH2)2, CO, 4-ClC6 H4, base] | 0.5 | 0.16 | 2.5 | 0.63 | – | –
O=C(CC1CCN(CCn2c(=O)[nH]c3ccccc32)CC1)c1ccc(F)cc1 [H, H, H, (CH2)2, CO, 4-FC6 H4, base, 1-[2-[4-[2-(4-fluorophenyl)-2-oxoethyl]-1-piperidinyl]ethyl]-1,3-dihydro-2H-benzimidazol-2-one] | 0.03 | 0.01 | 0.31 | 0.31 | – | –
O=C(CC1CCN(CCn2c(=O)[nH]c3ccccc32)CC1)c1ccccc1 [H, H, H, (CH2)2, CO, C6 H5, base] | 0.25 | 0.31 | 2.5 | 0.63 | – | –
O=C(CC1CCN(CCCn2c(=O)[nH]c3ccccc32)CC1)c1ccc(F)cc1 [H, H, H, (CH2)3, CO, 4-FC6 H4, base, 1-[3-[4-[2-(4-fluorophenyl)-2-oxoethyl]-1-piperidinyl]propyl]-1,3-dihydro-2H-benzimidazol-2-one] | – | 0.08 | 1.25 | – | – | –
CC(CCn1c(=O)[nH]c2ccccc21)N1CCC(CC(=O)c2ccc(F)cc2)CC1 (stereo not shown) [H, H, H, [drawing 21], CO, 4-FC6 H4, base, 1-[3-[4-[2-(4-fluorophenyl)-2-oxoethyl]-1-piperidinyl]butyl]-1,3-dihydro-2H-benzimidazol-2-one] | – | 1.25 | 5 | – | – | –
CN(C)CCCSc1ccccc1NC(=O)/C=C/c1ccccc1 [cinanserin] | – | – | – | – | prevent completely | prevent completely
CN1CCC(=C2c3ccccc3C=Cc3ccccc32)CC1 [cyproheptadine] | – | – | – | – | prevent completely | prevent completely
CN1C[C@H](CNC(=O)OCc2ccccc2)C[C@@H]2c3cccc4c3c(cn4C)C[C@H]21 [metergoline] | – | – | – | – | prevent completely | prevent completely
CC[C@@H](CO)NC(=O)[C@@H]1C=C2c3cccc4c3c(cn4C)C[C@H]2N(C)C1 [methysergide] | – | – | – | – | prevent completely | prevent completely
CN1CCN2c3ccccc3Cc3ccccc3C2C1 (stereo not shown) [mianserin] | – | – | – | – | prevent completely | prevent completely
NC(=O)C1(N2CCCCC2)CCN(CCCC(=O)c2ccc(F)cc2)CC1 [pipamperone] | – | – | – | – | prevent completely | prevent completely
CN1CCC(=C2c3ccccc3CCc3sccc32)CC1 [pizotifen] | – | – | – | – | prevent completely | prevent completely
O=C(CCCN1CCC2(CC1)C(=O)NCN2c1ccccc1)c1ccc(F)cc1 [spiperone] | – | – | – | – | prevent completely | prevent completely
